Where a SMILES comes first, the peptide text is derived from it. [ ]: non-standard residue; d: D form. Dap = NC[C@H](N)C(=O)O
System: Primary cultures of human fibroblasts
Experiment: Repair capacity of DNA degradation (UVB, alkaline comet assay)
Assay type: cell-based
Settings: UVB 0.4 J/cm^2 30 s, then 0.25 μg/mL for 3 h at 37° C., versus intrinsic repair efficiency of the cells
From the text: Testing the Repair Capacity of DNA Degradation
Primary cultures of human fibroblasts (10^5 cells/plate) were irradiated to 0.4 J/cm^2 UVB for 30 seconds. […]
With `C[C@@H](NC(=O)[C@@H](N)CN)C(=O)N1CCC[C@H]1C(=O)N[C@@H](Cc1c[nH]cn1)C(=O)O` [H-L-Dpr-D-Ala-L-Pro-L-His-OH] (H-[Dap][dA]PH-OH) the “REPAIR EFFICIENCY of DNA degradation” value was 120%.

Same assay, conditions: UVB 0.4 J/cm^2 30 s, then 0.5 μg/mL for 3 h at 37° C., versus intrinsic repair efficiency of the cells
For `C[C@@H](NC(=O)[C@@H](N)CN)C(=O)N1CCC[C@H]1C(=O)N[C@@H](Cc1c[nH]cn1)C(=O)O` [H-L-Dpr-D-Ala-L-Pro-L-His-OH] (H-[Dap][dA]PH-OH), the “REPAIR EFFICIENCY of DNA degradation” value was 170%.

System: not listed separately
Experiment: Scavenging assay of 4-hydroxy-2-nonenal
Assay type: biochemical
Settings: 2 mM peptide in 10 mM PBS mixed with equal volume of 100 μM aldehyde in acetonitrile, 37° C., 24 h, HPLC of remaining aldehyde
Description: Scavenging assay of 4-hydroxy-2-nonenal.
A solution was prepared from peptides in a 10 mM PBS buffer at a concentration of 2 mM, as well as a solution of the aldehyde in acetonitrile at a concentration of 100 μM. Equal volumes of peptide solutions and aldehyde were mixed and were left to react at 37° C. for 24 h. The scavenging efficiency of the RCS was measured by HPLC analysis of the remaining aldehyde content in the reaction mixture.
For H-L-Dpr-L-Ala-L-Asp-L-His-OH, the “Scavenging % of HNE aldehyde” value was 97.6%.
With H-L-Dpr-D-Ala-L-Ala-L-His-NH2 the “Scavenging % of HNE aldehyde” value was 97.7%.
With H-L-Dpr-L-Ala-D-Asp-L-His-OH the “Scavenging % of HNE aldehyde” value was 94.1%.
With H-L-Dpr-L-Ala-L-Ala-L-His-NH2 the “Scavenging % of HNE aldehyde” value was 96.0%.
In the case of `NCCC(=O)N[C@@H](Cc1cnc[nH]1)C(=O)O` [Carnosine, carnosine, reference compound], the “Scavenging % of HNE aldehyde” value is reported as 89.4%.
With `C[C@@H](NC(=O)[C@@H](N)CN)C(=O)N1CCC[C@H]1C(=O)N[C@@H](Cc1c[nH]cn1)C(=O)O` [H-L-Dpr-D-Ala-L-Pro-L-His-OH] (H-[Dap][dA]PH-OH) the “Scavenging % of HNE aldehyde” value was 98.0%.
With `C[C@H](NC(=O)[C@@H](N)CN)C(=O)N1CCC[C@H]1C(=O)N[C@@H](Cc1c[nH]cn1)C(=O)O` [H-L-Dpr-L-Ala-L-Pro-L-His-OH] (H-[Dap]APH-OH) the “Scavenging % of HNE aldehyde” value was 93.9%.
For H-L-Dpr-D-Ala-L-Glu-L-His-NH2, the “Scavenging % of HNE aldehyde” value was 97.7%.
For H-L-Dpr-L-Ala-L-Pro-L-His-NH2, the “Scavenging % of HNE aldehyde” value was 96.3%.
In the case of H-L-Dpr-D-Ala-L-Asp-L-His-OH, the “Scavenging % of HNE aldehyde” value is reported as 98.8%.
For H-L-Dpr-D-Ala-L-Pro-L-His-NH2, the “Scavenging % of HNE aldehyde” value was 98.3%.
In the case of H-L-Dpr-L-Ala-L-Asp-L-His-NH2, the “Scavenging % of HNE aldehyde” value is reported as 97.5%.
In the case of `NCCCC[C@H](NC(=O)[C@H](Cc1c[nH]cn1)NC(=O)CN)C(=O)O` [GHK, glycyl-histidyl-lysine, reference compound] (H-Gly-His-Lys-OH), the “Scavenging % of HNE aldehyde” value is reported as 82.1%.
With H-L-Dpr-L-Ala-L-Asp-D-His-OH the “Scavenging % of HNE aldehyde” value was 86.3%.

System: not listed separately
Experiment: Reduction of the odor emitted by aldehyde 2-nonenal (sniff test)
Settings: 0.05% peptide in phosphate buffer 10 mM pH 7-7.5 added to equal volume of 0.00089% 2-nonenal in acetonitrile, odor at time zero and 24 h, panel of 3 experts
Description: Reduction of the Odor Emitted by Aldehyde 2-nonenal
We evaluated the reduction of the odor given off by aldehyde 2-nonenal after the addition of a solution containing 0.05% of H-L-Dpr-L-Ala-L-Ala-L-His-OH through an olfactory test (“sniff test”) conducted by a panel of 3 independent experts.
We prepared a solution of 2-nonenal at 0.00089% in acetonitrile to which was added an equal volume of phosphate buffer 10 mM pH 7-7.5 or H-L-Dpr-L-Ala-L-Ala-L-His-OH to 0.05% in phosphate buffer 10 mM pH 7-7.5. We evaluated the odor intensity given off at time zero and 24 h after creating the mixture of aldehyde and peptide, performing the measurements in a room heated to 24° C. and with controlled humidity at 60% and statistically analyzed the values obtained using the Wilcoxon Matched Paired test.
For H-L-Dpr-L-Ala-L-Ala-L-His-OH, the “reduction of the odor given off by 2-nonenal” value was 15.6%.

System: not listed separately
Experiment: Scavenging assay of 2-nonenal
Assay type: biochemical
Settings: 2 mM peptide in 10 mM PBS mixed with equal volume of 100 μM aldehyde in acetonitrile, 37° C., 24 h, HPLC of remaining aldehyde
Description: Scavenging assay of 2-nonenal.
A solution was prepared from peptides in a 10 mM PBS buffer at a concentration of 2 mM, as well as a solution of the aldehyde in acetonitrile at a concentration of 100 μM. Equal volumes of peptide solutions and aldehyde were mixed and left to react at 37° C. for 24 h. The scavenging efficiency of the RCS was measured by HPLC analysis of the remaining aldehyde content in the reaction mixture.
In the case of H-L-Dpr-D-Ala-L-Ala-L-His-NH2, the “Scavenging % of NE aldehyde” value is reported as 98.2%.
In the case of H-L-Dpr-L-Ala-L-Glu-L-His-OH, the “Scavenging % of NE aldehyde” value is reported as 75.6%.
With H-L-Dpr-L-Ala-D-Asp-L-His-OH the “Scavenging % of NE aldehyde” value was 83.1%.
With H-L-Dpr-L-Ala-L-Ala-L-His-NH2 the “Scavenging % of NE aldehyde” value was 94.1%.
For H-L-Dpr-L-Ala-L-Asn-L-His-NH2, the “Scavenging % of NE aldehyde” value was 95.3%.
In the case of H-L-Dpr-L-Ala-L-Ala-L-His-OH, the “Scavenging % of NE aldehyde” value is reported as 74.6%.
For H-L-Dpr-L-Ala-L-Glu-L-His-NH2, the “Scavenging % of NE aldehyde” value was 92.6%.
For `NCCC(=O)N[C@@H](Cc1cnc[nH]1)C(=O)O` [Carnosine, carnosine, reference compound], the “Scavenging % of NE aldehyde” value was 70.3%.
In the case of `C[C@@H](NC(=O)[C@@H](N)CN)C(=O)N1CCC[C@H]1C(=O)N[C@@H](Cc1c[nH]cn1)C(=O)O` [H-L-Dpr-D-Ala-L-Pro-L-His-OH] (H-[Dap][dA]PH-OH), the “Scavenging % of NE aldehyde” value is reported as 97.0%.
For `C[C@H](NC(=O)[C@@H](N)CN)C(=O)N1CCC[C@H]1C(=O)N[C@@H](Cc1c[nH]cn1)C(=O)O` [H-L-Dpr-L-Ala-L-Pro-L-His-OH] (H-[Dap]APH-OH), the “Scavenging % of NE aldehyde” value was 76.7%.
In the case of H-L-Dpr-D-Ala-L-Glu-L-His-NH2, the “Scavenging % of NE aldehyde” value is reported as 95.2%.
In the case of H-L-Dpr-D-Ala-L-Glu-L-His-OH, the “Scavenging % of NE aldehyde” value is reported as 93.2%.
In the case of H-L-Dpr-L-Ala-L-Pro-L-His-NH2, the “Scavenging % of NE aldehyde” value is reported as 88.7%.
In the case of H-L-Dpr-D-Ala-L-Asp-L-His-OH, the “Scavenging % of NE aldehyde” value is reported as 95.4%.
For H-L-Dpr-D-AIa-L-Asn-L-His-NH2, the “Scavenging % of NE aldehyde” value was 98.9%.
With H-L-Dpr-D-Ala-L-Pro-L-His-NH2 the “Scavenging % of NE aldehyde” value was 98.1%.
In the case of H-L-Dpr-L-Ala-L-Asn-L-His-OH, the “Scavenging % of NE aldehyde” value is reported as 73.1%.
For H-L-Dpr-L-Ala-L-Asp-L-His-NH2, the “Scavenging % of NE aldehyde” value was 94.5%.
For `NCCCC[C@H](NC(=O)[C@H](Cc1c[nH]cn1)NC(=O)CN)C(=O)O` [GHK, glycyl-histidyl-lysine, reference compound] (H-Gly-His-Lys-OH), the “Scavenging % of NE aldehyde” value was 24.7%.
With H-L-Dpr-L-Ala-L-Asp-D-His-OH the “Scavenging % of NE aldehyde” value was 66.5%.

System: Primary cultures of human melanocytes
Experiment: Protective capacity against DNA degradation (UVA, alkaline comet assay)
Assay type: cell-based
Settings: 1.0 μg/mL for 2 h at 37° C., then UVA 1.0 J/cm^2, alkaline comet assay
Description: Test of the Protective Capacity of DNA Degradation
Primary cultures of human melanocytes (10^5 cells/plate) were treated with 1.0 μg/mL of H-L-Dpr-D-Ala-L-Pro-L-His-OH for 2 h at 37° C. Subsequently, the cultures were irradiated with UVA at 1.0 J/cm^2 for no longer than 3min at 4° C. and the extent of the damage induced to DNA was determined by alkaline comet assay [De Meo M., Laget M., Castegnaro M. and Dumenil G. (1991) “Genotoxic activity of potassium permanganate in acidic solutions” Mutat. Res 260:295-306].
For `C[C@@H](NC(=O)[C@@H](N)CN)C(=O)N1CCC[C@H]1C(=O)N[C@@H](Cc1c[nH]cn1)C(=O)O` [H-L-Dpr-D-Ala-L-Pro-L-His-OH] (H-[Dap][dA]PH-OH), the “PROTECTIVE EFFICIENCY against DNA degradation” value was 36.1%.

System: human keratinocytes
Experiment: Photoprotection efficiency in cultured human keratinocytes (solar simulation lamp, Neutral Red viability)
Assay type: cell-based
Settings: 1 mg/ml peptide, viability compared with irradiated and non-irradiated control cells
Description: Testing the photoprotection efficiency of H-L-Dpr-D-Ala-L-Pro-L-His-OH, H-L-Dpr-D-Ala-L-Ala-L-His-OH and H-L-Dp- L-Ala-L-Pro-L-His-OH in cultured human keratinocytes.
Human keratinocytes were maintained in culture for 24 h on 96 well plates to form monolayers and the cells were pre-incubated in the dark with 1 mg/ml of H-L-Dpr-D-Ala-L-Pro-L-His-OH, H-L-Dpr-D-Ala-L-Ala-L-His-OH, H-L-Dpr-L-Ala-L-Pro-L-His-OH or phosphate buffered saline (control) for one hour at 37° C. and humidified air with 5% CO2. Subsequently, cells were irradiated with a solar simulation lamp (with an energy of 37 J/cm^2 at room temperature for 150 min in the case of H-L-Dpr-D-Ala-L-Pro-L-His-OH). A control plate was kept in the dark during the same time at room temperature. After the period of irradiation, the cell medium was replaced by a fresh medium and the cells were incubated for an additional 24 h.
Cell viability was determined by the Neutral Red dye, measuring the absorbance at 540 nm in a spectrophotometer.
The photoprotection efficiency was determined by comparing the viability obtained in cells treated with H-L-Dpr-D-Ala-L-Pro-L-His-OH, H-L-Dpr-D-Ala-L-Ala-L-His-OH or H-L-Dpr-L-Ala-L-Pro-L-His-OH on the response of irradiated and non-irradiated control cells.
With `C[C@@H](NC(=O)[C@@H](N)CN)C(=O)N1CCC[C@H]1C(=O)N[C@@H](Cc1c[nH]cn1)C(=O)O` [H-L-Dpr-D-Ala-L-Pro-L-His-OH] (H-[Dap][dA]PH-OH) the “PHOTOPROTECTION EFFICIENCY” value was 92.0%.
For `C[C@H](NC(=O)[C@@H](N)CN)C(=O)N1CCC[C@H]1C(=O)N[C@@H](Cc1c[nH]cn1)C(=O)O` [H-L-Dpr-L-Ala-L-Pro-L-His-OH] (H-[Dap]APH-OH), the “PHOTOPROTECTION EFFICIENCY” value was 56.8%.
